The source of these data is patent US20240262819A1, “NOVEL COMPOUNDS HAVING INHIBITORY ACTIVITY AGAINST GLUCOSYLCERAMIDE SYNTHASE OR PHARMACEUTICALLY ACCEPTABLE SALT THEREOF, PROCESSES FOR PREPARING THE SAME, AND PHARMACEUTICAL COMPOSITIONS COMPRISING THE SAME” (YUHAN CORPORATION, priority 2021, published 2024).

The nature of series [1]: Evaluation of blood-brain barrier (BBB) permeability through oral administration. Type of series: in vivo, mice. The note with it: mouse, in vivo, mice, oral, dose 30 mg/kg, 4 hr; for Kp at 4 h: read-out: Mean brain-plasma drug ratio at 4 hr. In outline: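 Mice dosed orally at 10 or 30 mg/10 ml/kg, suspended in 0.5% methyl cellulose with 0.2% Tween 80. Plasma and forebrain homogenate taken 4 hours post-dose, drug measured by LC-MS/MS; brain/plasma ratio calculated from tissue concentrations.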

Series [2] relates to GM1 production in Jurkat cells. Nature of the series: cells. Type of series: cell-based.
Series [3] has as its target glucosylceramide synthase (GCS) (Homo sapiens (Human), UniProt Q16739). Nature of the series: Evaluation of inhibitory activities against GCS (A549 cell lysate, NBD C6-ceramide, HPLC). Type of series: biochemical. In outline:
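GCS activity in A549 cell lysate (50 mM HEPES, pH 7.3) with NBD C6-ceramide, reacted 90 min at 37 °C. Lipids were chloroform/methanol-extracted and separated by normal-phase HPLC with fluorescence detection (ex 470/em 530 nm). GlcCer fraction of peak area was normalized between DMSO and ibiglustat, and IC50 obtained by curve fitting.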

Setting [4] is: read-out: Mean drug concentrations in brain tissue at 4 hr.
The mark [5] stands for this setting: read-out: Mean drug concentrations in plasma at 4 hr.
Setting [6] is: % GCS activity, A549 cell lysate, 37° C. for 90 minutes, read-out: IC50.

Like-named read-outs stand apart in the source and are kept apart here.

Sequence of glucosylceramide synthase (GCS) (Q16739 whole entry): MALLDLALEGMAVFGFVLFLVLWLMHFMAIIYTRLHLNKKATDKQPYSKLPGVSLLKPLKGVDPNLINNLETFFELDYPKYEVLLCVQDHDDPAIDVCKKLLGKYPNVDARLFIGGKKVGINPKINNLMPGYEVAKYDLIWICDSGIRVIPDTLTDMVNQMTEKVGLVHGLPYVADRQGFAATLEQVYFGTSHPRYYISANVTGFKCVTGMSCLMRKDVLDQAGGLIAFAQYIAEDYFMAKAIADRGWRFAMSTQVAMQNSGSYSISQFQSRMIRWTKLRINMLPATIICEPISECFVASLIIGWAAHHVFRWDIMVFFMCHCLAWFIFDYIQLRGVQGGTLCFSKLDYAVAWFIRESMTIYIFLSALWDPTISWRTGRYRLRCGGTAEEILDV

As a reminder, the IC50 is the concentration needed to halve the response being measured. Take `COc1ccc(-c2ccc3c(c2)CC(C)(C)[C@H]3NC(=O)O[C@@H]2CN3CCC2CC3)cc1F` [Example 18, (S)-quinuclidin-3-yl((R)-5-(3-fluoro-4-methoxyphenyl)-2,2-dimethyl-2,3-dihydro-1H-inden-1-yl)carbamate]: in series [1], the Kp at 4 h is 3.47. Besides, the concentration at 4 h in series [1] (setting [4]) is 3950 ng/g; in series [1] (setting [5]) it was 1130 ng/mL. The IC50 in series [2] (Homo sapiens, Jurkat, 72 h) was determined as 50.7 nM; in series [3] it was 3.19 nM.
Taken in the same sequence, the figures for `CC(C)Oc1ccc(-c2ccc3c(c2)CC(C)(C)[C@H]3NC(=O)O[C@@H]2CN3CCC2CC3)c(Cl)c1` [Example 32, (S)-quinuclidin-3-yl((R)-5-(2-chloro-4-isopropoxyphenyl)-2,2-dimethyl-2,3-dihydro-1H-inden-1-yl)carbamate] were 4.23, 5650 ng/g, 1340 ng/mL, 4.23 nM and 0.192 nM.
For `Cc1cc(-c2ccc3c(c2)CC(C)(C)[C@H]3NC(=O)O[C@@H]2CN3CCC2CC3)ccc1OC(C)C` [Example 34, (S)-quinuclidin-3-yl((R)-5-(4-isopropoxy-3-methylphenyl)-2,2-dimethyl-2,3-dihydro-1H-inden-1-yl)carbamate], the Kp at 4 h in series [1] was 14. In addition, the concentration at 4 h in series [1] (setting [4]) worked out at 10700 ng/g; in series [1] (setting [5]), 767 ng/mL. The IC50 was 2.3 nM in series [2] (Homo sapiens, Jurkat, 72 h) and 1.31 nM in series [3].
In the same order, the values of `COc1cc(-c2ccc3c(c2)CC(C)(C)[C@H]3NC(=O)O[C@@H]2CN3CCC2CC3)ccc1OC(C)C` [Example 35, (S)-quinuclidin-3-yl((R)-5-(4-isopropoxy-3-methoxyphenyl)-2,2-dimethyl-2,3-dihydro-1H-inden-1-yl)carbamate] are 1.85, 2010 ng/g, 1080 ng/mL, 3.3 nM and 2.22 nM.
As for `Cc1cc(OC(C)C)ccc1-c1ccc2c(c1)CC(C)(C)[C@H]2NC(=O)O[C@@H]1CN2CCC1CC2` [Example 36, (S)-quinuclidin-3-yl((R)-5-(4-isopropoxy-2-methylphenyl)-2,2-dimethyl-2,3-dihydro-1H-inden-1-yl)carbamate], the Kp at 4 h in series [1] stood at 3.65. In addition, the concentration at 4 h in series [1] (setting [4]) was 6650 ng/g; in series [1] (setting [5]), 1830 ng/mL. The IC50 in series [2] (Homo sapiens, Jurkat, 72 h) was determined as 0.7 nM; in series [3], 0.13 nM.
For `CC1(C)Cc2cc(-c3ccc(OCC4CC4)cc3Cl)ccc2[C@@H]1NC(=O)O[C@@H]1CN2CCC1CC2` [Example 38, (S)-quinuclidin-3-yl((R)-5-(2-chloro-4-(cyclopropylmethoxy)phenyl)-2,2-dimethyl-2,3-dihydro-1H-inden-1-yl)carbamate], the Kp at 4 h in series [1] came out at 5.6. The concentration at 4 h in series [1] (setting [4]) worked out at 3640 ng/g; in series [1] (setting [5]), 670 ng/mL. Moreover, the IC50 in series [2] (Homo sapiens, Jurkat, 72 h) turned out to be 3.2 nM; in series [3] it was 0.05 nM.
In the same order, the values of `CC1(C)Cc2cc(-c3ccc(OCC4CC4)c(Cl)c3)ccc2[C@@H]1NC(=O)O[C@@H]1CN2CCC1CC2` [Example 39, (S)-quinuclidin-3-yl((R)-5-(3-chloro-4-(cyclopropylmethoxy)phenyl)-2,2-dimethyl-2,3-dihydro-1H-inden-1-yl)carbamate] are 9.85, 5510 ng/g, 564 ng/mL, 1.1 nM and 1.03 nM.
With `CCOc1ccc(-c2ccc3c(c2)CC(C)(C)[C@H]3NC(=O)O[C@@H]2CN3CCC2CC3)c(Cl)c1` [Example 44, (S)-quinuclidin-3-yl((R)-5-(2-chloro-4-ethoxyphenyl)-2,2-dimethyl-2,3-dihydro-1H-inden-1-yl)carbamate], the Kp at 4 h in series [1] came to 4.79. The values for the concentration at 4 h in series [1] (setting [4]) and in series [1] (setting [5]) were 8860 ng/g and 1850 ng/mL, respectively. Further, the IC50 stood at 2.3 nM in series [2] (Homo sapiens, Jurkat, 72 h) and 0.17 nM in series [3].
Taken in the same sequence, the figures for `CCCOc1c(C)cc(-c2cc3c(cc2F)[C@H](NC(=O)O[C@@H]2CN4CCC2CC4)C(C)(C)C3)cc1C` [Example 64, (S)-quinuclidin-3-yl((R)-5-(3,5-dimethyl-4-propoxyphenyl)-6-fluoro-2,2-dimethyl-2,3-dihydro-1H-inden-1-yl)carbamate] were 4.43, 1040 ng/g, 234 ng/mL, 11.6 nM and 3.92 nM.
As for `CC(C)Oc1ccc(-c2cc3c(cc2F)[C@H](NC(=O)O[C@@H]2CN4CCC2CC4)C(C)(C)C3)cc1F` [Example 83, (S)-quinuclidin-3-yl((R)-6-fluoro-5-(3-fluoro-4-isopropoxyphenyl)-2,2-dimethyl-2,3-dihydro-1H-inden-1-yl)carbamate], the Kp at 4 h in series [1] amounted to 6.29. Moreover, the concentration at 4 h in series [1] (setting [4]) was found to be 7370 ng/g; in series [1] (setting [5]), 1170 ng/mL. The IC50 is 10.4 nM in series [2] (Homo sapiens, Jurkat, 72 h) and 0.58 nM in series [3].
For `Cc1ccc(-c2cc3c(cc2F)[C@H](NC(=O)O[C@@H]2CN4CCC2CC4)C(C)(C)C3)cc1Cl` [Example 84, (S)-quinuclidin-3-yl((R)-5-(3-chloro-4-methylphenyl)-6-fluoro-2,2-dimethyl-2,3-dihydro-1H-inden-1-yl)carbamate], the Kp at 4 h in series [1] amounted to 7.23. Also, the concentration at 4 h in series [1] (setting [4]) was found to be 4940 ng/g; in series [1] (setting [5]), 683 ng/mL. Also, the IC50 in series [2] (Homo sapiens, Jurkat, 72 h) is 17.2 nM; in series [3] it was 0.29 nM.
In the same order, the values of `CCOc1ccc(-c2cc3c(cc2F)[C@H](NC(=O)O[C@@H]2CN4CCC2CC4)C(C)(C)C3)cc1Cl` [Example 86, (S)-quinuclidin-3-yl((R)-5-(3-chloro-4-ethoxyphenyl)-6-fluoro-2,2-dimethyl-2,3-dihydro-1H-inden-1-yl)carbamate] are 5.65, 4790 ng/g, 852 ng/mL, 45.8 nM and 0.756 nM.
`CCCOc1ccc(-c2cc3c(cc2F)[C@H](NC(=O)O[C@@H]2CN4CCC2CC4)C(C)(C)C3)cc1Cl` [Example 87, (S)-quinuclidin-3-yl((R)-5-(3-chloro-4-propoxyphenyl)-6-fluoro-2,2-dimethyl-2,3-dihydro-1H-inden-1-yl)carbamate]: the Kp at 4 h in series [1] came out at 8.57. For the same compound, the concentration at 4 h in series [1] (setting [4]) amounted to 972 ng/g; in series [1] (setting [5]), 114 ng/mL. Also, the IC50 in series [2] (Homo sapiens, Jurkat, 72 h) is 36.2 nM; in series [3] it was 0.77 nM.
As to `COc1ccc(-c2cc3c(cc2F)[C@H](NC(=O)O[C@@H]2CN4CCC2CC4)C(C)(C)C3)cc1F` [Example 89, (S)-quinuclidin-3-yl((R)-6-fluoro-5-(3-fluoro-4-methoxyphenyl)-2,2-dimethyl-2,3-dihydro-1H-inden-1-yl)carbamate], in series [1], the Kp at 4 h came out at 5.42. The concentration at 4 h was 4040 ng/g in series [1] (setting [4]) and 751 ng/mL in series [1] (setting [5]). The IC50 amounted to 43.5 nM in series [2] (Homo sapiens, Jurkat, 72 h) and 0.621 nM in series [3].
With `CC(C)Oc1ccc(-c2cc3c(cc2F)[C@H](NC(=O)O[C@@H]2CN4CCC2CC4)C(C)(C)C3)c(Cl)c1` [Example 92, (S)-quinuclidin-3-yl((R)-5-(2-chloro-4-isopropoxyphenyl)-6-fluoro-2,2-dimethyl-2,3-dihydro-1H-inden-1-yl)carbamate], in series [1], the Kp at 4 h is 4.13. Besides, the figures for the concentration at 4 h in series [1] (setting [4]) and in series [1] (setting [5]) were 2230 ng/g and 545 ng/mL, respectively. Moreover, the IC50 amounted to 1.16 nM in series [2] (Homo sapiens, Jurkat, 72 h) and 0.07 nM in series [3].
Regarding `CCCOc1cccc(-c2cc3c(cc2F)[C@H](NC(=O)O[C@@H]2CN4CCC2CC4)C(C)(C)CC3)c1` [Example 192, (S)-quinuclidin-3-yl((R)-7-fluoro-2,2-dimethyl-6-(3-propoxyphenyl)-1,2,3,4-tetrahydronaphthalen-1-yl) carbamate], the IC50 is 2.9 nM in series [2] (read-out: IC50) and 0.53 nM in series [3] (setting [6]).
As to `CCOc1c(C)cc(-c2cc3c(cc2F)[C@H](NC(=O)O[C@@H]2CN4CCC2CC4)C(C)(C)CC3)cc1C` [Example 195, (S)-quinuclidin-3-yl((R)-6-(4-ethoxy-3,5-dimethylphenyl)-7-fluoro-2,2-dimethyl-1,2,3,4-tetrahydronaphthalen-1-yl)carbamate], the IC50 turned out to be 8.3 nM in series [2] (Homo sapiens, Jurkat, 72 h) and 1.29 nM in series [3].
With `CC(C)Oc1cccc(-c2cc3c(cc2F)[C@H](NC(=O)O[C@@H]2CN4CCC2CC4)C(C)(C)CC3)c1` [Example 196, (S)-quinuclidin-3-yl((R)-7-fluoro-6-(3-isopropoxyphenyl)-2,2-dimethyl-1,2,3,4-tetrahydronaphthalen-1-yl)carbamate], the concentration for half-maximal inhibition (IC50) in series [2] (Homo sapiens, Jurkat, 72 h) is 6 nM; in series [3], 0.43 nM.
With “(S)-quinuclidin-3-yl((R)-2,2-dimethyl-6-(3-propylphenyl)-1,2,3,4-tetrahydronaphthalen-1-yl) carbamate [Example 156]”, the IC50 was 1.9 nM in series [2] (read-out: IC50) and 0.62 nM in series [3] (setting [6]).
Consider “(S)-quinuclidin-3-yl((R)-7-fluoro-6-(4-isopropylphenyl)-2,2-dimethyl-1,2,3,4-tetrahydronaphthalen-1-yl) carbamate [Example 172]”, for which the IC50 in series [2] (read-out: IC50) is 0.86 nM; in series [3] (setting [6]) it was 0.33 nM.
“(S)-quinuclidin-3-yl((R)-7-fluoro-6-(4-methoxyphenyl)-2,2-dimethyl-1,2,3,4-tetrahydronaphthalen-1-yl) carbamate [Example 175]”: the IC50 in series [2] (read-out: IC50) came out at 3.8 nM; in series [3] (setting [6]), 0.28 nM.
